Source: US4010264A, “7-[3-Substituted isoxazol-5-yl]-acetamido-cephalosporanic acids and their anti-bacterial use” (Koninklijke Nederlandsche Gist-en Spiritusfabriek N.V., priority 1970, dated 1977)
≈ marks a conversion by molar mass, not a printed value. Counter-ions that a name gives are not always drawn. Like-named read-outs stand apart in the source and are kept apart here.

Columns and labels:
[1] = system: Bacillus subtilis ATCC 6633; test: MIC, agar serial dilution test; assay type: cell-based
[2] = system: Staphylococcus aureus A55; test: MIC, agar serial dilution test; assay type: cell-based
[3] = system: Staphylococcus aureus A321; test: MIC, agar serial dilution test; assay type: cell-based
[4] = system: Streptococcus haemolyticus A266; test: MIC, agar serial dilution test; assay type: cell-based
[5] = system: Streptococcus faecalis L 80; test: MIC, agar serial dilution test; assay type: cell-based; settings: Enterococcus faecalis
[6] = system: Diplococcus pneumoniae L 54; test: MIC, agar serial dilution test; assay type: cell-based; settings: Streptococcus pneumoniae
Brucella melitensis A488 = test: microbe, parasite or virus in culture; assay type: cell-based; settings: A488, 24 h
[7] = system: Pasteurella multocida A723; test: MIC, agar serial dilution test; assay type: cell-based
[8] = system: Klebsiella pneumoniae A809; test: MIC, agar serial dilution test; assay type: cell-based
[9] = system: Staphylococcus aureus A355 (penicillinase-producing); test: MIC, agar serial dilution test; settings: 24 h
[10] = system: Staphylococcus aureus L160a (penicillinase-producing); test: MIC, agar serial dilution test; settings: 24 h
[11] = system: Staphylococcus aureus A 321; test: in vivo infection test in mice; settings: A321, in Mus musculus
[12] = system: Staphylococcus aureus A 2001; test: in vivo infection test in mice; settings: A2001, in Mus musculus
[13] = system: Staphylococcus aureus A 2000; test: in vivo infection test in mice; settings: A2000, in Mus musculus
[14] = system: Salmonella typhi murium R 172; test: in vivo infection test in mice; settings: Salmonella enterica, in Mus musculus, ip
[15] = system: Pseudomonas aeruginosa A 1058; test: in vivo infection test in mice; settings: A1058, in Mus musculus
Proteus mirabilis O.T. = test: in vivo infection test in mice; settings: in Mus musculus
[16] = ATCC6633, Bacillus subtilis ATCC 6633, 24 hours at 37° C, read-out: MIC
[17] = Staphylococcus aureus A55, 24 hours at 37° C, read-out: MIC
[18] = Staphylococcus aureus A321, 24 hours at 37° C, read-out: MIC
[19] = Streptococcus haemolyticus A266, 24 hours at 37° C, read-out: MIC
[20] = L80, Streptococcus faecalis L 80, 24 hours at 37° C, read-out: MIC
[21] = L54, Diplococcus pneumoniae L 54, 24 hours at 37° C, read-out: MIC
[22] = Pasteurella multocida A723, 24 hours at 37° C, read-out: MIC
[23] = Klebsiella pneumoniae A809, 24 hours at 37° C, read-out: MIC

| SMILES | MIC [1, 16] [µg/mL] | MIC [2, 17] [µg/mL] | MIC [3, 18] [µg/mL] | MIC [4, 19] [µg/mL] | MIC [5, 20] [µg/mL] | MIC [6, 21] [µg/mL] | MIC (Brucella melitensis A488) [µg/mL] | MIC [7, 22] [µg/mL] | MIC [8, 23] [µg/mL] | MIC [9] [µg/mL] | MIC [10] [µg/mL] | ED50 ([11]; ip) [mg/kg] | ED50 ([11]; po) [mg/kg] | further results |
| --- | --- | --- | --- | --- | --- | --- | --- | --- | --- | --- | --- | --- | --- | --- |
| CC1(C)SC2C(NC(=O)Cc3cc(-c4c(Cl)cccc4Cl)no3)C(=O)N2C1C(=O)O (stereo not drawn) [Example I, Sodium salt of 6-{[3-(2,6-dichlorophenyl)isoxazol-5-yl]acetamido}-penicillanic acid] | 0.007 | 0.01 | 0.015 | 0.007 | 50 | 0.25 | 0.5 | 2 | 100 | 3 | 1 | 10.8 | 126 | ED50 ([11]; sc): 36.9 mg/kg; ED50 ([12]; ip): > 215 mg/kg; ED50 ([12]; po): > 215 mg/kg; ED50 ([12]; sc): > 215 mg/kg; ED50 ([13]; ip): 133 mg/kg; ED50 ([13]; po): > 215 mg/kg; ED50 ([13]; sc): > 215 mg/kg; ED50 [14]: > 215 mg/kg; ED50 ([15]; ip): > 215 mg/kg |
| Cc1cc(C)c(-c2cc(C(Cl)C(=O)NC3C(=O)N4C3SC(C)(C)C4C(=O)O)on2)c(C)c1 (stereo not drawn) [Example IX, Cyclohexylamine salt of 6-{α-chloro-[3-(2,4,6-trimethyl)phenyl-isoxazol-5-yl]acetamido}penicillanic acid] | 0.12 | 0.25 | 0.25 | 0.06 | 1.5 | 0.12 | 25 | 25 | > 100 | 25 | 25 | > 21.5 | > 100 | – |
| CC1(C)S[C@@H]2C(NC(=O)Cc3onc(-c4c(Cl)cccc4Cl)c3C(=O)O)C(=O)N2[C@H]1C(=O)O (stereo partly drawn) [Example V, 6-{[3-(2,6-dichlorophenyl)-4-carboxyisoxazol-5-yl]acetamido}penicillanic acid] | 0.5 (≈ 0.972 µM) | 1 (≈ 1.94 µM) | 1 (≈ 1.94 µM) | 0.5 (≈ 0.972 µM) | 25 (≈ 48.6 µM) | 6 (≈ 11.7 µM) | 25 (≈ 48.6 µM) | 1.5 (≈ 2.92 µM) | > 100 | 12.5 (≈ 24.3 µM) | 3 (≈ 5.83 µM) | < 100 | > 215 | ED50 (Proteus mirabilis O.T.; ip): > 300 mg/kg; ED50 (Proteus mirabilis O.T.; po): > 300 mg/kg |
| Cc1cc(C)c(-c2cc(C(C)C(=O)NC3C(=O)N4C3SC(C)(C)C4C(=O)O)on2)c(C)c1 (stereo not drawn) [Example XI, Cyclohexylamine salt of 6{α-methyl-[3-(2,4,6-trimethyl)phenylisoxazol-5-yl]acetamido}penicillanic acid] | 0.06 | 0.12 | 0.06 | 0.007 | 1.5 | 0.12 | 3 | 50 | 100 | 12.5 | 12.5 | > 21.5 | > 100 | ED50 ([15]; po): > 300 mg/kg; ED50 (Proteus mirabilis O.T.; ip): > 300 mg/kg; ED50 (Proteus mirabilis O.T.; po): > 300 mg/kg |
| CCC(Oc1ccccc1)C(=O)N[C@@H]1C(=O)N2[C@@H]1SC(C)(C)[C@@H]2C(=O)O (stereo partly drawn) [Propicillin, reference compound] | – | – | – | – | – | – | – | – | – | – | – | – | 10.8 | ED50 ([11]; sc): 2.33 mg/kg; ED50 ([12]; ip): 133 mg/kg; ED50 ([12]; po): > 215 mg/kg; ED50 ([12]; sc): > 215 mg/kg; ED50 ([13]; ip): 88 mg/kg; ED50 ([13]; po): > 215 mg/kg; ED50 ([13]; sc): > 215 mg/kg |
| CC(=O)OCC1=C(C(=O)O)N2C(=O)C(NC(=O)Cc3onc(-c4c(C)cc(C)cc4C)c3C)C2SC1 (stereo not drawn) [XII, Sodium salt of 7-{[3-(2,4,6-trimethyl)phenyl-4-methyl-isoxazol-5-yl]acetamido}cephalosporanic acid] | 0.06 | 0.25 | 0.12 | 0.06 | 6 | 0.06 | 50 | 100 | > 100 | 0.25 | 0.25 | – | – | – |
| CC1=C(C(=O)O)N2C(=O)C(NC(=O)Cc3onc(-c4c(C)cc(C)cc4C)c3C)C2SC1 (stereo not drawn) [XIII, Sodium salt of 7-{[3-(2,4,6-trimethyl)phenyl-4-phenyl-methyl-isoxazol-5-yl]acetamido}desacetoxycephalosporanic acid] | 1 | 3 | 1.5 | 0.6 | 100 | 1.5 | > 100 | > 100 | > 100 | 6 | 6 | – | – | – |
| CC1(C)SC2C(NC(=O)Cc3onc(-c4c(Cl)cccc4Cl)c3C(N)=O)C(=O)N2C1C(=O)O (stereo not drawn) [XIV, 6-{[3-(2,6-dichloro)phenyl-4-carbamyl-isoxazol-5-yl]acetamido} penicillanic acid] | 3 (≈ 5.84 µM) | 12.5 (≈ 24.3 µM) | 12.5 (≈ 24.3 µM) | 1.5 (≈ 2.92 µM) | 50 (≈ 97.4 µM) | 6 (≈ 11.7 µM) | 50 (≈ 97.4 µM) | 50 (≈ 97.4 µM) | > 100 | > 100 | > 100 | – | – | – |
| CC1(C)SC2C(NC(=O)Cc3cc(-c4ccc([N+](=O)[O-])cc4)no3)C(=O)N2C1C(=O)O (stereo not drawn) [XIX, Sodium salt of 6-{[3-p-nitrophenyl-isoxazol-5-yl]acetamido}penicillanic acid] | < 0.015 | 0.03 | 0.03 | 1.5 | 1 | 0.03 | 0.12 | 1 | 100 | 1 | 3 | – | – | – |
| CC(=O)OCC1=C(C(=O)[O-])N2C(=O)C(NC(=O)Cc3onc(C)c3Cl)[C@H]2SC1.[Na+] (stereo partly drawn) [XXXV, Sodium 7{[3-methyl-4-chloroisoxazole-5 yl]acetamido}-3-acetoxymethyl-3-cephem-4carboxylate] | – | – | – | – | – | – | 0.06 | – | – | 0.5 | 0.5 | – | – | MIC ([1]; Bacillus subtilis, ATCC6633, 24 h): 0.06 µg/mL; MIC ([2]; Staphylococcus aureus, A55, 24 h): 0.25 µg/mL; MIC ([3]; Staphylococcus aureus, A321, 24 h): 0.25 µg/mL; MIC ([4]; Streptococcus, A266, 24 h): 0.06 µg/mL; MIC ([5]; L80, 24 h): 25 µg/mL; MIC ([6]; L54, 24 h): 1 µg/mL; MIC ([7]; Pasteurella multocida, A723, 24 h): 0.75 µg/mL; MIC ([8]; Klebsiella pneumoniae, A809, 24 h): 1.5 µg/mL |
